This is an account of results in US9884063B2, “Amido-substituted azole compounds” (Bayer Pharma Aktiengesellschaft, priority 2014, dated 2018).

Test [1] has as its target T1, TNKS2 (Homo sapiens, UniProt Q9H2K2).
T1 sequence (Q9H2K2 1-1166): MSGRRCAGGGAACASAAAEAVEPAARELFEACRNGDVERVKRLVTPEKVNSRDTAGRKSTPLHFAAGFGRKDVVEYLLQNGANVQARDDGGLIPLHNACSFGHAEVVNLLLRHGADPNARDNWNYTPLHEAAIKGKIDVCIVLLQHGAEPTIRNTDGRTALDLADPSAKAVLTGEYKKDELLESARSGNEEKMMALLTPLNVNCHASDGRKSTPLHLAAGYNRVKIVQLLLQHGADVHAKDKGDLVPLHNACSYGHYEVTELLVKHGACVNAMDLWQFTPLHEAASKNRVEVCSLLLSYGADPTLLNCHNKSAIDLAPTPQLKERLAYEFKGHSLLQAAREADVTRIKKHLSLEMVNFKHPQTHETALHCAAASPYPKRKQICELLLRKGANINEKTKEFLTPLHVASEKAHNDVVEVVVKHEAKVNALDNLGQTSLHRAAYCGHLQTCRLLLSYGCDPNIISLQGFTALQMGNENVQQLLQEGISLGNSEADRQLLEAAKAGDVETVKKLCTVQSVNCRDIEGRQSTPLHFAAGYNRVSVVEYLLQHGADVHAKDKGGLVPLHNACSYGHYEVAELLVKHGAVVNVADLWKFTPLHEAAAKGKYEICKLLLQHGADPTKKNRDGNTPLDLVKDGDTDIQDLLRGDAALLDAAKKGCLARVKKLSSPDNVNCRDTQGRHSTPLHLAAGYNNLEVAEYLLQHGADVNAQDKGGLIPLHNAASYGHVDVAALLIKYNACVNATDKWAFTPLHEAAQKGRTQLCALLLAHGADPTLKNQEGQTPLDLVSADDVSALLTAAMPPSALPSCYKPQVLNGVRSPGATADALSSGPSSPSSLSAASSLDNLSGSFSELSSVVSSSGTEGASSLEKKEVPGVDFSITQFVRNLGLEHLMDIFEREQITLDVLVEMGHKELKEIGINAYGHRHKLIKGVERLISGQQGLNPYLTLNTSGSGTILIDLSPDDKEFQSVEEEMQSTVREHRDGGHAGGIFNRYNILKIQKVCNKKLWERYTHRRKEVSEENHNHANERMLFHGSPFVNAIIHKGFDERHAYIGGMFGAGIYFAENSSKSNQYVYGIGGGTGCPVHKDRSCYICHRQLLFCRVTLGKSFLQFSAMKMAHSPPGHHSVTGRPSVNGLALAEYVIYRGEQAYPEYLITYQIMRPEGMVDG
In words: TNKS2 Assay 1 (TNKS2 Histone Ribosylation Assay Kit, biotin-labeled NAD+). Format: biochemical. The following applies: chemiluminescent readout, 384 well. How it is done:
The potency of the compounds according to the invention was assessed applying an in vitro inhibition assay. The TNKS2 catalyzed NAD^+-dependent ribosylation of a suitable protein substrate was detected using a commercially available biotin/streptavidin binding based assay format [TNKS2 Histone Ribosylation Assay Kit (Biotin-labeled NAD+), Catalog #80572; BPS Bioscience, San Diego, USA]. Here, the incorporation of a biotin-labeled NAD+ during the TNKS2 catalyzed ribosylation reaction was detected with a streptavidin-HRP coupled chemi-luminescent readout. The intensity of the readout signal is proportional to the incorporated NAD^+. Inhibition of TNKS2 leads to a decreased incorporation of NAD^+ and consequently to a lower readout signal intensity. The concentration of a test compound which inhibits the enzyme activity by 50% (corresponds to half of the normed readout signal intensity) is reported as IC50.
The assay was conducted in a 384 well MTP format according to the manufacturer's protocol [bpsbioscience.com/poly-adp-ribose-polymerase/assay-kit/tnks2-histone-ribosylation-assay-kit-biotin-labeled-nad-80572 referencing: Brown, J. A., Marala, R. B. J. Pharmacol. Toxicol. Methods 2002 47:137-41]. and using a BMG Pherastar MTP reader [BMG-Labtech, Offenburg, Germany].

Test [2] has as its target T1, TNKS2. In words: Modified TNKS2 Assay 2 (auto-parsylation, [3H]-NAD+ SPA). Format: biochemical. The following applies: 6 nM TNKS2, 96 well.

By IC50 is commonly meant the concentration that gives 50% inhibition. Read a high IC50 as lower potency. Turning to `CNC(=O)c1nc[nH]c1C(=O)Nc1ccc(NC(=O)c2cccc(Cl)c2Cl)cc1` [Example 1, N^5-{4-[(2,3-dichlorobenzoyl)amino]phenyl}-N^4-methyl-1H-imidazole-4,5-dicarboxamide], the IC50 at TNKS2 [1] (Table 2) worked out at 20 nM; on TNKS2 [1] (first table), 20 nM; against TNKS2 [2] it was 3300 nM.
For `CNC(=O)c1nc[nH]c1C(=O)Nc1ccc(NC(=O)c2ccc(N(C)C)cc2Cl)cc1` [Example 4, N^5-(4-{[2-chloro-4-(dimethylamino)benzoyl]amino}phenyl)-N^4-methyl-1H-imidazole-4,5-dicarboxamide], the results for the IC50 at TNKS2 [1] (Table 2), against TNKS2 [1] (first table) and against TNKS2 [2] were 90 nM, 90 nM and over 10000 nM, respectively.
For the compound `CNC(=O)c1nc[nH]c1C(=O)Nc1ccc(NC(=O)c2ccc(F)cc2Cl)c(C)c1` [Example 5, N^5-{4-[(2-chloro-4-fluorobenzoyl)amino]-3-methylphenyl}-N^4-methyl-1H-imidazole-4,5-dicarboxamide], the results for the IC50 against TNKS2 [1] (Table 2), against TNKS2 [1] (first table) and against TNKS2 [2] were 470 nM, 470 nM and 770 nM, respectively.
`CNC(=O)c1nc[nH]c1C(=O)Nc1ccc(NC(=O)c2ccncc2Cl)cc1` [Example 6, N^5-{4-[(3-chloroisonicotinoyl)amino]phenyl}-N^4-methyl-1H-imidazole-4,5-dicarboxamide]: the results for the IC50 against TNKS2 [1] (Table 2), against TNKS2 [1] (first table) and on TNKS2 [2] were 50 nM, 50 nM and 180 nM, respectively.
As for `CNC(=O)c1nc[nH]c1C(=O)Nc1ccc(NC(=O)c2ccc(Cl)cc2Cl)cc1` [Example 9, N^5-{4-[(2,4-dichlorobenzoyl)amino]phenyl}-N^4-methyl-1H-imidazole-4,5-dicarboxamide], the figures for the IC50 on TNKS2 [1] (Table 2), against TNKS2 [1] (first table) and at TNKS2 [2] were 30 nM, 20 nM and 80 nM, respectively.
With `CC(C)NC(=O)c1nc[nH]c1C(=O)Nc1ccc(NC(=O)c2ccc(F)cc2Cl)cc1` [Example 10, N^5-{4-[(2-chloro-4-fluorobenzoyl)amino]phenyl}-N^4-isopropyl-1H-imidazole-4,5-dicarboxamide], the IC50 at TNKS2 [1] (Table 2) was determined as 230 nM; against TNKS2 [1] (first table), 230 nM; on TNKS2 [2], 350 nM.
In the case of `CNC(=O)c1ncoc1C(=O)Nc1ccc(NC(=O)c2ccc(F)cc2Cl)cc1` [Example 11, N^5-{4-[(2-chloro-4-fluorobenzoyl)amino]phenyl}-N^4-methyl-1,3-oxazole-4,5-dicarboxamide], the half-maximal inhibitory concentration (IC50) is 90 nM against TNKS2 [1] (Table 2), 120 nM at TNKS2 [1] (first table) and 910 nM against TNKS2 [2].
In the same order, the values of `CNC(=O)c1nc[nH]c1C(=O)Nc1ccc(NC(=O)c2ccc(F)cc2Cl)cc1` [Example 12, N^5-{4-[(2-chloro-4-fluorobenzoyl)amino]phenyl}-N^4-methyl-1H-imidazole-4,5-dicarboxamide] are 20 nM, 20 nM and 60 nM.
In the same order, the values of `CNC(=O)c1nc[nH]c1C(=O)Nc1ccc(NC(=O)c2ccc(F)cc2Cl)nc1` [Example 16, N^5-{6-[(2-chloro-4-fluorobenzoyl)amino]pyridin-3-yl}-N^4-methyl-1H-imidazole-4,5-dicarboxamide] are 40 nM, 40 nM and 100 nM.
On to `CNC(=O)c1nc[nH]c1C(=O)Nc1ccc(NC(=O)c2c(-c3ccccc3)nn(C)c2Cl)cc1` [Example 17, N^5-(4-{[(5-chloro-1-methyl-3-phenyl-1H-pyrazol-4-yl)carbonyl]amino}phenyl)-N^4-methyl-1H-imidazole-4,5-dicarboxamide], for which the IC50 against TNKS2 [1] (Table 2) and against TNKS2 [1] (first table) was 2200 nM in each case.
For `O=C(Nc1ccc(NC(=O)c2[nH]cnc2C(=O)NCc2ccccc2)cc1)c1ccc(F)cc1Cl` [Example 18, N^4-benzyl-N^5-{4-[(2-chloro-4-fluorobenzoyl)amino]phenyl}-1H-imidazole-4,5-dicarboxamide], the IC50 against TNKS2 [1] (Table 2) and against TNKS2 [1] (first table) was 850 nM in each case.
In the case of `CNC(=O)c1nc[nH]c1C(=O)Nc1ccc(NC(=O)c2ccccc2C)cc1` [Example 19, N^4-methyl-N^5-{4-[(2-methylbenzoyl)amino]phenyl}-1H-imidazole-4,5-dicarboxamide], the IC50 against TNKS2 [1] (Table 2) turned out to be 290 nM; at TNKS2 [1] (first table), 290 nM; against TNKS2 [2] it was 1800 nM.
`CNC(=O)c1nc[nH]c1C(=O)Nc1ccc(NC(=O)c2ccc(F)cc2)cc1` [Example 20, N^5-{4-[(4-fluorobenzoyl)amino]phenyl}-N^4-methyl-1H-imidazole-4,5-dicarboxamide]: the IC50 against TNKS2 [1] (Table 2) was 1700 nM; on TNKS2 [1] (first table), 1700 nM; at TNKS2 [2] it was over 10000 nM.
As to `CNC(=O)c1nc[nH]c1C(=O)Nc1ccc(NC(=O)c2c(C)cc(F)cc2C)cc1` [Example 23, N^5-{4-[(4-fluoro-2,6-dimethylbenzoyl)amino]phenyl}-N^4-methyl-1H-imidazole-4,5-dicarboxamide], the IC50 against TNKS2 [1] (Table 2) and against TNKS2 [1] (first table) was 340 nM throughout.
`CN(C)C(=O)c1nc[nH]c1C(=O)Nc1ccc(NC(=O)c2ccc(F)cc2Cl)cc1` [Example 24, N^5-{4-[(2-chloro-4-fluorobenzoyl)amino]phenyl}-N^4,N^4-dimethyl-1H-imidazole-4,5-dicarboxamide]: the 50% inhibitory concentration (IC50) on TNKS2 [1] (Table 2) worked out at 500 nM; against TNKS2 [1] (first table), 500 nM; on TNKS2 [2], 3400 nM.
Take `CNC(=O)c1nc[nH]c1C(=O)Nc1ccc(NC(=O)c2ccc(OCCN(C)C)cc2Cl)cc1` [Example 25, N^5-[4-({2-chloro-4-[2-(dimethylamino)ethoxy]benzoyl}amino)phenyl]-N^4-methyl-1H-imidazole-4,5-dicarboxamide]: the IC50 against TNKS2 [1] (Table 2) worked out at 60 nM; at TNKS2 [1] (first table) it was 60 nM; against TNKS2 [2], 220 nM.
Consider `CNC(=O)c1nc[nH]c1C(=O)Nc1ccc(NC(=O)c2c(Cl)cccc2Cl)cc1` [Example 26, N^5-{4-[(2,6-dichlorobenzoyl)amino]phenyl}-N^4-methyl-1H-imidazole-4,5-dicarboxamide], for which the figures for the IC50 at TNKS2 [1] (Table 2), against TNKS2 [1] (first table) and against TNKS2 [2] were 160 nM, 160 nM and 1600 nM, respectively.
For `CNC(=O)c1nc[nH]c1C(=O)Nc1ccc(NC(=O)c2ccccc2Cl)cc1` [Example 27, N^5-{4-[(2-chlorobenzoyl)amino]phenyl}-N^4-methyl-1H-imidazole-4,5-dicarboxamide], the IC50 at TNKS2 [1] (Table 2) was determined as 40 nM; at TNKS2 [1] (first table), 40 nM; at TNKS2 [2], 530 nM.
With `CNC(=O)c1nc[nH]c1C(=O)Nc1ccc(NC(=O)c2ccc(OCCN3CCN(C)CC3)cc2Cl)cc1` [Example 28, N^5-[4-({2-chloro-4-[2-(4-methylpiperazin-1-yl)ethoxy]benzoyl}amino)phenyl]-N^4-methyl-1H-imidazole-4,5-dicarboxamide], the values for the IC50 on TNKS2 [1] (Table 2), against TNKS2 [1] (first table) and against TNKS2 [2] were 60 nM, 60 nM and 180 nM, respectively.
`O=C(Nc1ccc(NC(=O)c2[nH]cnc2C(=O)NCC(F)(F)F)cc1)c1ccc(F)cc1Cl` [Example 30, N^4-{4-[(2-chloro-4-fluorobenzoyl)amino]phenyl}-N^5-(2,2,2-trifluoroethyl)-1H-imidazole-4,5-dicarboxamide]: the figures for the half-inhibitory concentration (IC50) against TNKS2 [1] (Table 2), against TNKS2 [1] (first table) and against TNKS2 [2] were 70 nM, 70 nM and 40 nM, respectively.
At TNKS2 [1] (Table 2), `CNC(=O)c1[nH]cnc1C(=O)Nc1ccc(NC(=O)c2cc(Cl)sc2Cl)cc1` [Example 213, N^4-(4-{[(2,5-dichloro-3-thienyl)carbonyl]amino}phenyl)-N^5-methyl-1H-imidazole-4,5-dicarboxamide] showed an IC50 of over 100000 nM.
